Laboratory results taken from ChEMBL document CHEMBL5653610, “The novel phosphodiesterase 10A inhibitor THPP-1 has antipsychotic-like effects in rat and improves cognition in rat and rhesus monkey” (Neuropharmacology, 2013).
Active and inactive are the calls of the source. The calls are words filed in the database; no cut-off is given here.

Tested on: Rattus norvegicus
Test: Antipsychotic activity in Wistar Hannover rat assessed as increase in recognition at 0.56 mg/kg, ip dosed 30 mins before identical objects by novel object recognition test
Assay type: functional, organism-based

In the case of `COc1cc2c(cc1OC)C(=O)C(CC1CCN(Cc3ccccc3)CC1)C2` (stereo unspecified), the Activity was “Active”.
